Values of other authors, collected in patent US20240293547A1, “POLYMERIC PERFLUOROCARBON NANOEMULSIONS FOR ULTRASONIC DRUG UNCAGING” (The Board of Trustees of the Leland Stanford Junior …, priority 2017, published 2024).

Details: for LogP: of the loaded drug

LogP | log P | SMILES
2.8 | – | Cc1cccc([C@H](C)c2cnc[nH]2)c1C [Dexmedetomidine]
3.82 | 3.8 | COC(=O)C1=C(C)NC(C)=C(C(=O)OCCN(C)Cc2ccccc2)C1c1cccc([N+](=O)[O-])c1 (stereo not drawn) [Nicardipine]
